Paper PMC5667462, “Benzoylphenyl thiocyanates are new, effective inhibitors of the mycobacterial resuscitation promoting factor B protein” (Annals of Clinical Microbiology and Antimicrobials, 2017)

Molecular target: T1, RpfB (catalytic domain, residues 280-362) (Mycobacterium tuberculosis, UniProt P9WG29)
Assay: intrinsic tryptophan fluorescence quenching (Stern-Volmer)
Format: binding
Conditions: 50 mM phosphate buffer, pH 6.0; room temperature; RpfB 25.6 μg/ml; excitation 280 nm

T1 sequence (P9WG29 280-362): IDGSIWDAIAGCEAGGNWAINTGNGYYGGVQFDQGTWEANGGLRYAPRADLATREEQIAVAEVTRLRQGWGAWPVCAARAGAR

Structure (SMILES) | intrinsic tryptophan fluorescence quenching (Stern-Volmer)
N#CSc1ccc(C(=O)c2ccc(SC#N)c([N+](=O)[O-])c2)cc1[N+](=O)[O-] [IV, Bis(4-thiocyano-3-nitrophenyl)methanone] | confirmed by quenching of Rpf’s autofluorescence by the compound (IV)

Molecular target: T1, RpfB (catalytic domain, residues 280-362)
Assay: release of fluorescent fragments from FITC-labelled peptidoglycan
Format: biochemical
Conditions: read-out: IC50 Rpf-hydrolysis of PG, μM / M. tuberculosis
From the text: release of fluorescent fragments from FITC-labelled peptidoglycan on RpfB (catalytic domain, residues 280-362)

Structure (SMILES) | IC50 [µM]
N#CSc1ccc(C(=O)c2ccccc2)cc1 [III, 4-Benzoylphenyl thiocyanate] | 1.2 ± 0.5
N#CSc1ccc(C(=O)c2ccc(SC#N)c([N+](=O)[O-])c2)cc1[N+](=O)[O-] [IV, Bis(4-thiocyano-3-nitrophenyl)methanone] | 5.8 ± 2
N#CSc1ccc(C(=O)c2ccc(SC#N)cc2)cc1 [V, Bis(4-thiocyanophenyl)methanone] | 4.3 ± 2.4
N#CSc1cccc(C(=O)c2ccccc2)c1 [II, 3-Benzoylphenyl thiocyanate] | 1.7 ± 0.4
N#CSc1cccc(C(=O)c2cccc(SC#N)c2)c1 [VI, Bis(3-thiocyanophenyl)methanone] | 3.6 ± 1.2
